Results as given in patent US7893263B2, “Structural analogs of corosolic acid having anti-diabetic and anti-inflammatory properties” (Laila Nutraceuticals, priority 2004, dated 2011).

Key:
Albino wistar rats = test: Hypoglycemic activity: inhibition of sucrose-induced raise in serum glucose levels (SGL); format: in vivo; parameters: Inhibitory rate (serum glucose level inhibitory rate): unit not given here; conditions: oral dose 1 mg/Kg; for SGL (mean ± SE): 20 mL/kg of 20% sucrose orally after 30 minutes, blood drawn one hour after treatment, groups of six rats; for Inhibitory rate (serum glucose level inhibitory rate): mean increase in serum glucose levels of treated vs control groups
Protocol: Hypoglycemic activity: Hypoglycemic activity was tested by the inhibition of sucrose-induced raise in serum glucose levels (SGL), by the test substances in Albino wistar rats. The procedure involves fasting the rats for overnight at ad libitum water, numbered weighed and randomly divided into groups of six animals each. Prior to treatment blood samples were drawn from sinus orbital plexus of all animals using heparin coated glass capillaries under mild ether anesthesia. The blood samples were tested for serum glucose levels using enzymatic GOD/POD method. […] SGL=(test OD/Standard OD)×100 and the results were expressed in mg/dL. All the groups were treated orally with corresponding test substances, standard, vehicle (5% gum acacia). After 30 minutes, all animals were given 20 mL/kg of 20% sucrose solution orally using gastric tube. One hour after treatment, blood samples were drawn again under mild ether anesthesia and tested for serum glucose levels in a same procedure as described above for initial serum glucose estimation. The data was subjected to statistical treatment using t-test and inhibitory rate was calculated by comparing mean increase in serum glucose levels of control and treated groups. The corosolic acid analogs of this invention are found to show better hypoglycemic activity (Table 1; hypoglycemic activity is expressed in serum glucose level inhibitory rate values; higher the inhibitory rate value, higher is the activity) than the corosolic acid.

5-Lipoxygenase = 5-Lipoxygenase inhibitory activity, colorimetric method (ferric xylenol orange, linoleic acid); format: biochemical
Protocol: 5-Lipoxygenase activity: The corosolic acid analogs were screened for their 5-Lipoxygenase inhibitory potential using colorimetric method. The assay mixture contained 50 mM phosphate buffer pH 6.3, 5-Lipoxygenase, various concentrations of test substances in dimethyl sulphoxide and linoleic acid in a total volume of 0.5 mL, after 5 min incubation of above reaction mixture, 0.5 mL ferric xylenol orange reagent was added and OD was measured after two minutes at 585 nm using spectrophotometer. Controls were run along with test in a similar manner except using vehicle instead of test substance solution. Percent inhibition was calculated by comparing absorbance of test solution with that of control.
The corosolic acid analogs of this invention are found to show good 5-lipoxygenase activity (Table 2; 5-lipoxygenase activity is expressed in % of inhibition at 100 μM and 250 μM; higher the % inhibitory values, higher is the activity).

[1] = tested on: Brine shrimp (Artemia salina) nauplii; test: in vivo; conditions: 24 h at 37° C., 10 nauplii per vial
Protocol: Brine shrimp lethality: Brine shrimp (Artemia salina) nauplii were hatched using brine shrimp eggs in a conical shaped vessel (1 L), filled with sterile artificial sea water (prepared using sea salt 38 g/L and adjusted to pH 8.5 using 1 N NaOH) under constant aeration for 48 h. After hatching, 10 nauplii were drawn through a pepette and placed in each vial containing 4.5 mL brine solution and added various concentrations of drug solutions and volume was made upto 5 mL using brine solution and maintained at 37° C. for 24 h under the light of incandescent lamps and surviving larvae were counted. Each experiment was conducted along with control (vehicle treated), at various concentrations of the test substance in each set that contains 6 tubes and the average results are reported. The percentage lethality was determined by comparing the mean mortal larvae of test and control tubes. LC50 values were obtained from the plot of concentration (μg) vs. percentage lethality. Podophyllotoxin was used as a positive control.
The corosolic acid analogs of this invention are found to show significant brine shrimp lethality (Table 3; brine shrimp lethality is expressed in LC50 at μM concentration; lower the LC50 value, higher is the activity).

Row | Compound | SGL (mean ± SE) (Albino wistar rats) | Inhibitory rate (serum glucose level inhibitory rate) (Albino wistar rats) | % inhibition of 5-Lox activity (5-Lipoxygenase; 100 μM) | % inhibition of 5-Lox activity (5-Lipoxygenase; 250 μM) | LC50 [1]
1 | 2-O-Acetylcorosolic acid and 3-O-acetylcorosolic acid [Compound 1] | 109.54 ± 2.80 mg/dL | 32.75 | 15.47% | 24.05% | 9.7 µM
2 | 3-O-acetyl-11-keto-β-boswellic acid [AKBA, reference compound] |  |  | 17.45% | 25.3% | 
3 | CC(=O)O[C@@H]1C[C@]2(C)[C@H]3CC=C4[C@@H]5[C@@H](C)[C@H](C)CC[C@]5(C(=O)O)CC[C@@]4(C)[C@]3(C)CC[C@H]2C(C)(C)[C@H]1OC(C)=O [Compound 2, 2,3-Di-O-acetylcorosolic acid] |  |  | 20.08% | 44.54% | 1.8 µM
4 | CC1CCC2(C(=O)O)CCC3(C)C(=CCC4C5(C)CC(OC(=O)c6cccnc6)C(O)C(C)(C)C5CCC43C)C2C1C (stereo not shown) [Compound 3, 2-O-Nicotinoylcorosolic acid] | 115.86 ± 3.77 mg/dL | 13.9 | 28.54% | 53.19% | 86.6 µM
5 | CC1CCC2(C(=O)O)CCC3(C)C(=CCC4C5(C)CC(OC(=O)CN)C(O)C(C)(C)C5CCC43C)C2C1C.Cl (stereo not shown) [Compound 4, 2-O-Glycylcorosolic acid hydrochloride] | 119.23 ± 9.58 mg/dL | 26.8 | 17.04% | 27.83% | 3.9 µM
6 | CC(N)C(=O)OC1CC2(C)C(CCC3(C)C2CC=C2C4C(C)C(C)CCC4(C(=O)O)CCC23C)C(C)(C)C1O.Cl (stereo not shown) [Compound 5, 2-O-Alanylcorosolic acid hydrochloride] | 113.49 ± 4.11 mg/dL | 22.39 | 29.14% | 67.03% | 3.4 µM
7 | COC(=O)C12CCC(C)C(C)C1C1=CCC3C4(C)CC(OC(=O)C=Cc5cc(OC)c(OC)c(OC)c5)C(O)C(C)(C)C4CCC3(C)C1(C)CC2 (stereo not shown) [Compound 6, Methyl 2-O-(3,4,5-trimethoxycinnamoyl)corosolate] | 114.15 ± 6.62 mg/dL | 21.94 |  | 13.47% | > 200 µM
8 | CC1CCC2(C(=O)O)CCC3(C)C(=CCC4C5(C)CC6OS(=O)(=O)OC6C(C)(C)C5CCC43C)C2C1C (stereo not drawn) [Compound 7, 2α,3β-Dihydroxyurs-12-en-28-oic acid 2,3-cyclicsulphate] |  |  |  | 16.90% | 15 µM
9 | C[C@H]1[C@H](C)CC[C@]2(C(N)=O)CC[C@]3(C)C(=CC[C@@H]4[C@@]5(C)C[C@@H](O)[C@H](O)C(C)(C)[C@@H]5CC[C@]43C)[C@H]12 [Compound 8, Corosolamide] | 110.14 ± 3.18 mg/dL | 18.15 | 26.13% | 51.29% | 29 µM
10 | C[C@H]1[C@H](C)CC[C@]2(C(=O)Nc3ccccc3)CC[C@]3(C)C(=CC[C@@H]4[C@@]5(C)C[C@@H](O)[C@H](O)C(C)(C)[C@@H]5CC[C@]43C)[C@H]12 [Compound 9, N-Phenylcorosolamide] | 117.97 ± 0.37 mg/dL | 27.58 | 8.16% | 21.77% | > 100 µM
11 | CC1CCC2(C(=O)NCCN)CCC3(C)C(=CCC4C5(C)CC(O)C(O)C(C)(C)C5CCC43C)C2C1C (stereo not shown) [Compound 10, N-(2-Aminoethyl)corosolamide] | 113.57 ± 3.80 mg/dL | 30.28 | 21.74% | 40.87% | 97.2 µM
12 | CC1CCC2(C(=O)N3CCNCC3)CCC3(C)C(=CCC4C5(C)CC(O)C(O)C(C)(C)C5CCC43C)C2C1C (stereo not shown) [Compound 11, N-(Corosolyl)piperazine] | 107.88 ± 4.61 mg/dL | 19.83 | 35.42% | 64.99% | 9.2 µM
13 | CC1CCC2(C(=O)NCCO)CCC3(C)C(=CCC4C5(C)CC(O)C(O)C(C)(C)C5CCC43C)C2C1C (stereo not shown) [Compound 12, N-(2-Hydroxyethyl)corosolamide] | 103.49 ± 7.12 mg/dL | 36.47 | 17.74% | 32.96% | > 100 µM
14 | COC(=O)[C@]12CC[C@@H](C)[C@H](C)[C@H]1C1=CC[C@@H]3[C@@]4(C)C[C@@H](O)[C@H](O)C(C)(C)[C@@H]4CC[C@@]3(C)[C@]1(C)CC2 [Compound 13, Methyl corosolate] | 118.94 ± 8.61 mg/dL | 11.6 | 17.3% | 40.04% | 10.2 µM
15 | COC(=O)[C@]12CC[C@@H](C)[C@H](C)[C@H]1C1=CC(=O)[C@@H]3[C@@]4(C)C[C@@H](O)[C@H](O)C(C)(C)[C@@H]4CC[C@@]3(C)[C@]1(C)CC2 [Compound 15, Methyl 11-ketocorosolate] | 120.79 ± 4.85 mg/dL | 17.4 |  | 25.09% | 40.9 µM
16 | C[C@H]1[C@H](C)CC[C@]2(C(=O)O)CC[C@]3(C)C(=CC(=O)[C@@H]4[C@@]5(C)C[C@@H](O)[C@H](O)C(C)(C)[C@@H]5CC[C@]43C)[C@H]12 [Compound 17, 11-Ketocorosolic acid] | 120.90 ± 9.66 mg/dL | 25.78 |  |  | 
17 | CC(=O)OC1CC2(C)C(CCC3(C)C2C(=O)C=C2C4C(C)C(C)CCC4(C(=O)O)CCC23C)C(C)(C)C1OC(C)=O (stereo not shown) [Compound 18, Diacetyl-11-ketocorosolic acid] |  |  |  |  | 87.7 µM
18 | C[C@H]1[C@H](C)CC[C@]2(C(=O)O)CC[C@]3(C)C(=CC(=O)[C@@H]4[C@@]5(C)C[C@H]6OS(=O)(=O)O[C@@H]6C(C)(C)[C@@H]5CC[C@]43C)[C@H]12 [Compound 19, 2α,3β-Dihydroxyurs-12-en-11-one-28-oic acid 2,3-cyclicsulphate] | 129.16 ± 4.66 mg/dL | 11.67 |  | 11.81% | > 100 µM
19 | C[C@H]1[C@H](C)CC[C@]2(C(N)=O)CC[C@]3(C)C(=CC(=O)[C@@H]4[C@@]5(C)C[C@@H](O)[C@H](O)C(C)(C)[C@@H]5CC[C@]43C)[C@H]12 [Compound 20, 11-Ketocorosolamide] | 142.81 ± 7.30 mg/dL | 12.33 | 18.57% | 42.79% | > 100 µM
20 | C[C@H]1[C@H](C)CC[C@]2(C(N)=O)CC[C@]3(C)C(=CC(O)[C@@H]4[C@@]5(C)C[C@@H](O)[C@H](O)C(C)(C)[C@@H]5CC[C@]43C)[C@H]12 (stereo partly shown) [Compound 21, 11-Hydroxycorosolamide] | 121.57 ± 2.62 mg/dL | 25.37 | 25.57% | 50.83% | > 100 µM
21 | COC(=O)C12CCC(C)C(C)C1C1=CC(O)C3C4(C)CC(O)C(O)C(C)(C)C4CCC3(C)C1(C)CC2 (stereo not shown) [Compound 22, Methyl 11-hydroxycorosolate] |  |  | 24.56% | 49.40% | 19.9 µM
22 | CC(Cc1ccc(O)c(O)c1)C(C)Cc1ccc(O)c(O)c1 (stereo not shown) [NDGA, Nordihydroguaiaretic acid, reference compound] |  |  | 70.4% | 91.55% | 
23 | Methyl diacetyl-11-ketocorosolate [Compound 16] |  |  |  | 3.82% | 82.3 µM
24 | Methyl diacetylcorosolate [Compound 14] |  |  |  | 1.9% | 42.1 µM
